In US8637508B2, “Heterocyclic derivatives and their use in the treatment of neurological disorders” (Novartis AG, priority 2011, dated 2014):
Read-outs that look alike come from different tables or passages of the source.

Tests used:
human BACE-1 = human BACE-1 (Homo sapiens (Human), UniProt P56817); assay: Test 1: Inhibition of human BACE-1
human BACE-2 = human BACE-2 (Homo sapiens (Human), UniProt Q9Y5Z0); assay: Test 2: Inhibition of human BACE-2; type: biochemical
Description: Test 2: Inhibition of Human BACE-2

[1] = read-out: BACE-1 IC50, mean IC50, recombinant BACE-1, acetate buffer pH 4.5, fluorescence-quenched peptide substrate
[2] = mean IC50, recombinant BACE-2, acetate buffer pH 4.5, fluorescence-quenched peptide substrate, read-out: BACE-2 IC50

human BACE-1, sequence (P56817 46-457): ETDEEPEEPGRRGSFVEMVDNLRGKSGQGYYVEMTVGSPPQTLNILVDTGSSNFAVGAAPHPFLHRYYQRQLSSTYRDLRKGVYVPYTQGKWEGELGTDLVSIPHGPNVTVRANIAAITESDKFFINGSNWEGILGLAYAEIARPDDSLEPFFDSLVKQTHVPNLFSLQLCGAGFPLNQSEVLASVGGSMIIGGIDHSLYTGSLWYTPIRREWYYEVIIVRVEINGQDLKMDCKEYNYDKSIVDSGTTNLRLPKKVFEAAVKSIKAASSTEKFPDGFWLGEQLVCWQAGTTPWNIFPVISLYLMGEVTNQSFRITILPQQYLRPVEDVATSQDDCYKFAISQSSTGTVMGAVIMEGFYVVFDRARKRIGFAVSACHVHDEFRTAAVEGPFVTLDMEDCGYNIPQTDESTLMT
human BACE-2, sequence (Q9Y5Z0 63-473): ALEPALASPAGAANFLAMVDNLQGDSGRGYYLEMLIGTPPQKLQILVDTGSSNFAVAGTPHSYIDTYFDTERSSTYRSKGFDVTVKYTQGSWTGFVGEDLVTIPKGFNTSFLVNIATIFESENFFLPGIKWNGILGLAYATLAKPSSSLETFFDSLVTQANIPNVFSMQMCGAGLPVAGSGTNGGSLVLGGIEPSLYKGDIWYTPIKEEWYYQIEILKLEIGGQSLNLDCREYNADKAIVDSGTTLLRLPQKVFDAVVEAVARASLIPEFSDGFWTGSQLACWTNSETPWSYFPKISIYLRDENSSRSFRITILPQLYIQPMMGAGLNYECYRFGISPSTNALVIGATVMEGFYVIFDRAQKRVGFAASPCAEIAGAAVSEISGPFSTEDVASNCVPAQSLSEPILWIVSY

C[C@@]1(c2cccc(NC(=O)c3ncc(C#N)cc3N)n2)CO[C@@](C)(C(F)(F)F)C(N)=N1 [Example 19, 3-Amino-5-cyano-pyridine-2-carboxylic acid [6-((3R,6R)-5-amino-3,6-dimethyl-6-trifluoromethyl-3,6-dihydro-2H-[1,4]oxazin-3-yl)-pyridin-2-yl]-amide]
IC50 (human BACE-1; [1]): 43 nM
IC50 (human BACE-2; [2]): 82 nM

C[C@@]1(c2cc(NC(=O)c3ncc(OC(F)F)cc3Cl)ncc2F)CO[C@@](C)(C(F)(F)F)C(N)=N1 [Example 36, 3-Chloro-5-difluoromethoxy-pyridine-2-carboxylic acid [4-((3R,6R)-5-amino-3,6-dimethyl-6-trifluoromethyl-3,6-dihydro-2H-[1,4]oxazin-3-yl)-5-fluoro-pyridin-2-yl]-amide]
IC50 (human BACE-1; [1]): 410 nM
IC50 (human BACE-2; [2]): 280 nM

Cc1cnc(C(=O)Nc2ccc(F)c([C@]3(C)CO[C@@](C)(C(F)(F)F)C(N)=N3)n2)cn1 [Example 33, 5-Methyl-pyrazine-2-carboxylic acid [6-((3R,6R)-5-amino-3,6-dimethyl-6-trifluoromethyl-3,6-dihydro-2H-[1,4]oxazin-3-yl)-5-fluoro-pyridin-2-yl]amide]
IC50 (human BACE-1; [1]): 820 nM
IC50 (human BACE-2; [2]): 330 nM

C[C@@]1(c2cc(NC(=O)c3ncc(C#N)cc3Cl)ncc2F)CO[C@@](C)(C(F)(F)F)C(N)=N1 [Example 35, 3-Chloro-5-cyano-pyridine-2-carboxylic acid [4-((3R,6R)-5-amino-3,6-dimethyl-6-trifluoromethyl-3,6-dihydro-2H-[1,4]oxazin-3-yl)-5-fluoro-pyridin-2-yl]-amide]
IC50 (human BACE-1; [1]): 150 nM
IC50 (human BACE-2; [2]): 120 nM

C[C@@]1(c2nc(NC(=O)c3nc4ccn(CC(F)F)c4nc3N)ccc2F)CO[C@@](C)(C(F)(F)F)C(N)=N1 [Example 45, 3-Amino-5-(2,2-difluoro-ethyl)-5H-pyrrolo[2,3-b]pyrazine-2-carboxylic acid [6-((3R,6R)-5-amino-3,6-dimethyl-6-trifluoromethyl-3,6-dihydro-2H-[1,4]oxazin-3-yl)-5-fluoro-pyridin-2-yl]amide]
IC50 (human BACE-1): > 10000 nM
IC50 (human BACE-2): > 10000 nM

[2H]c1nc(C(=O)Nc2cccc([C@]3(C)CO[C@@](C)(C(F)(F)F)C(N)=N3)n2)c(C([2H])([2H])[2H])c([2H])c1Cl [Example 21, 5-Chloro-4,6-dideuterio-3-trideuteriomethyl-pyridine-2-carboxylic acid [6-((3R,6R)-5-amino-3,6-dimethyl-6-trifluoromethyl-3,6-dihydro-2H-[1,4]oxazin-3-yl)-pyridin-2-yl]-amide]
IC50 (human BACE-1): 31 nM
IC50 (human BACE-2): 8 nM
